Legend:
[1] = biological target: T1, Discoidin domain-containing receptor 2 (Homo sapiens, UniProt Q16832); assay: Inhibition of kinase tracer 178 binding to recombinant human His-tagged DDR2 expressed in baculovirus infected Sf9 cells incubated for 1 hr by TR-FRET based LanthaScreen Eu kinase binding assay
T1 sequence (Q16832 whole entry): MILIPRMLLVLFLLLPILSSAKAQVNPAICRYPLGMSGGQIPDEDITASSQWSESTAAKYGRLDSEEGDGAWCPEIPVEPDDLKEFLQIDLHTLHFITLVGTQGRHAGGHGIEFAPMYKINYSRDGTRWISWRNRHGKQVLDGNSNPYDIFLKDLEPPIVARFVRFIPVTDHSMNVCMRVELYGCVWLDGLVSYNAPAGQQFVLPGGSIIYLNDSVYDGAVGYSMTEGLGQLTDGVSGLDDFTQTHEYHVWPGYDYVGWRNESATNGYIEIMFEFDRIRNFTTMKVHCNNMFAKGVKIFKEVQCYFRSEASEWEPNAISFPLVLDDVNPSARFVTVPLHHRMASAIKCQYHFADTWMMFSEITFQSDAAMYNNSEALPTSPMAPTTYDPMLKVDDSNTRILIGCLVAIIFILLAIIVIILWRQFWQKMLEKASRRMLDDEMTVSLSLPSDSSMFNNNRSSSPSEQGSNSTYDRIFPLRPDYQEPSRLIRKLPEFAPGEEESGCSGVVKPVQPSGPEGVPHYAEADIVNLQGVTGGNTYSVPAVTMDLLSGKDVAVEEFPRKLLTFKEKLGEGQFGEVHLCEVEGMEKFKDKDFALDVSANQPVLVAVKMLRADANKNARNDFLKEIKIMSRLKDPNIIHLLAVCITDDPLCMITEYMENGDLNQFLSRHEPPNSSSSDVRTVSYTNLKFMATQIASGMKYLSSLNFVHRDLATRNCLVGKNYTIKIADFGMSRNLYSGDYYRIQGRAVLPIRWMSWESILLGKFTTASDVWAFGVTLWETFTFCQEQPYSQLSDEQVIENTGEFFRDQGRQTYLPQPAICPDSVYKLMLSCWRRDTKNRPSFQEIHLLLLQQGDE

[2] = Fraction unbound in rat plasma incubated for 4 hrs by LC/MS/MS analysis; assay type: ADME, cell-free
[3] = Metabolic stability in rat liver microsomes assessed as […] at 1 uM incubated for 5 mins followed by NADPH addition and measured upto 45 mins by LC/MS/MS analysis; assay type: ADME, Microsome; settings: read-out: CLH
[4] = Clearance in Sprague-Dawley rat at 0.5 mg/kg, iv or 3 mg/kg, po measured upto 24 hrs by LC/MS/MS analysis; assay type: ADME, organism-based; settings: in vivo
[5] = Half life in Sprague-Dawley rat at 0.5 mg/kg, iv or 3 mg/kg, po measured upto 24 hrs by LC/MS/MS analysis; assay type: ADME, organism-based; settings: in vivo
[6] = Volume of distribution at steady state in Sprague-Dawley rat at 0.5 mg/kg, iv or 3 mg/kg, po measured upto 24 hrs by LC/MS/MS analysis; assay type: ADME, organism-based; settings: in vivo, read-out: Vdss
[7] = Oral bioavailability in Sprague-Dawley rat at 3 mg/kg measured upto 24 hrs by LC/MS/MS analysis; assay type: ADME, organism-based; settings: in vivo
[8] = Tmax in Sprague-Dawley rat at 3 mg/kg, po measured upto 24 hrs by LC/MS/MS analysis; assay type: ADME, organism-based; settings: in vivo
[9] = Cytotoxicity against mesangial cells (unknown origin) expressing Hu-DDR1b assessed as reduction in cell viability at 10 uM incubated for 24 hrs by microscopic analysis; assay type: cell-based
[10] = Cytotoxicity against mesangial cells (unknown origin) expressing Hu-DDR1b assessed as reduction in cell viability at 1 uM incubated for 24 hrs by microscopic analysis; assay type: cell-based
[11] = biological target: Epithelial discoidin domain-containing receptor 1 (Homo sapiens, UniProt Q08345); assay: Inhibition of FLAG-tagged DDR1 in human HEK293 cells assessed as reduction in collagen-1-induced DDR1 phosphorylation incubated for 18 hrs by ELISA
Sequence of Epithelial discoidin domain-containing receptor 1 (Q08345 whole entry, the tested form may be a part): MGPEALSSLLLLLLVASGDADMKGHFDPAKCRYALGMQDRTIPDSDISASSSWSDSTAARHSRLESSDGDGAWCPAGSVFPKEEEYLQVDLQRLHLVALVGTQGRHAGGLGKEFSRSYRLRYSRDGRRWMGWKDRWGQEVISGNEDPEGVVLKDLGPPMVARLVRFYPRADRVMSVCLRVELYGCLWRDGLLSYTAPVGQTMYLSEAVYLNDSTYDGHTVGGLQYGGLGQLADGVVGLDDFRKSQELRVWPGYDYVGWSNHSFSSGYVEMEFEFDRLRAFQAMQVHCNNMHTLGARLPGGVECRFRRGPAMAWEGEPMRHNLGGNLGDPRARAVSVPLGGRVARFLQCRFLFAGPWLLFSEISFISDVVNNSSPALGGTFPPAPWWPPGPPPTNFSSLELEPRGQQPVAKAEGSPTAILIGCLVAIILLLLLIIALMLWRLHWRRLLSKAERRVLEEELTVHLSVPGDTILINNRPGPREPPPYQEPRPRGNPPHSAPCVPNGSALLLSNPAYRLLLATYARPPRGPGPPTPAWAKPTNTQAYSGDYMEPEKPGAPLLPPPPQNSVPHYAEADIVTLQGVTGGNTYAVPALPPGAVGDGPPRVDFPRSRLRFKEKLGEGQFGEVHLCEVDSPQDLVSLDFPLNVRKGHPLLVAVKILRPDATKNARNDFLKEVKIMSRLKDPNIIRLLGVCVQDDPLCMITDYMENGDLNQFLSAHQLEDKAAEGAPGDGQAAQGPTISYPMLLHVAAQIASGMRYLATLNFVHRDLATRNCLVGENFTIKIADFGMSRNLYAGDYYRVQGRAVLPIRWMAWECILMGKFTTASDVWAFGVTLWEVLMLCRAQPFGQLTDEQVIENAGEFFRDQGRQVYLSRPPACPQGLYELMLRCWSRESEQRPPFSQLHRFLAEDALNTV

IC50 [1] [nM]	fraction unbound at 4 h [2]	CLint scaled at 1 µM [3] [mL/min/kg]	Compound	also measured
7.39	0.089	43.2	Cn1ccc(-c2cncc(CNc3cc(C(=O)Nc4cccc(OC(F)(F)F)c4)ccc3F)c2)n1	clearance [4]: 34.2 mL/min/kg; half-life [5]: 3 h; Vd [6]: 4.3 L/kg; bioavailability [7]: 12.5%; Tmax [8]: 0.75 h; Activity [9]: Non-Toxic
6.36	–	–	COc1cncc(CNc2cc(C(=O)Nc3cccc(C(F)(F)F)c3)ccc2C)c1	–
4.56	0.016	46	Cc1ccc(C(=O)Nc2cccc(C(F)(F)F)c2)cc1NCc1cncc(-c2ccn(C)n2)c1	–
11	0.001	62	Cc1ccc(C(=O)Nc2cccc(C(F)(F)F)c2)cc1NCc1cncc(-c2ccc[nH]2)c1	–

Second part, the compound before the results:

Compound	IC50 [1] [nM]	fraction unbound at 4 h [2]	CLint scaled at 1 µM [3] [mL/min/kg]	also measured
Cc1ccc(C(=O)Nc2cccc(C(F)(F)F)c2)cc1NCc1cncc(C(N)=O)c1	4.79	–	–	–
Cc1ccc(C(=O)Nc2ccc(C)c(C(F)(F)F)c2)cc1NCc1cncc(-c2ccc[nH]2)c1	44.1	–	–	–
Cc1ccc(C(=O)Nc2cccc(C(F)(F)F)c2)cc1NCc1cccnc1	10.6	–	–	–
Cc1ccc(C(=O)Nc2cccc(C(F)(F)F)c2)cc1Nc1cncc(C(N)=O)c1	–	0.018	60	Activity [10]: Toxic; IC50 [11]: 4.8 nM

From ChEMBL document CHEMBL4334539, “Discovery of VU6015929: A Selective Discoidin Domain Receptor 1/2 (DDR1/2) Inhibitor to Explore the Role of DDR1 in Antifibrotic Therapy” (ACS Med Chem Lett, 2020)
